In EP4596574A1, “GLP-1/GCG/GIP TRIPLE-RECEPTOR AGONIST AND USE THEREOF” (Sunshine Lake Pharma Co., Ltd., priority 2022, dated 2024):
Marks after values point to notes of the source that are not given here.

Tests used:
[1] = Pharmacokinetic study in rats, single subcutaneous injection; settings: male, Sprague Dawley, in vivo, sc, rat, 50 nmol/kg single subcutaneous injection, plasma
Experimental: The pharmacokinetic study of each polypeptide compound prepared in Example 1 was conducted using male Sprague Dawley rats. There were 3 male rats in each group. […] The dose was 50 nmol/kg, and a single subcutaneous injection was given (see Table 3 for specific peptide compounds). After administration, plasma was collected on the specified days and time points, and the concentration of each peptide compound in the plasma was detected by LC-MS/MS method. The pharmacokinetic parameters were obtained based on the concentration data, which were used to describe the pharmacokinetic properties of the peptide in rats after subcutaneous injection. Table 3: Summary of pharmacokinetic parameters of some triple-target peptides in rats

[2] = Glucose tolerance assessment in normal C57BL/6 mice (Example 4); format: in vivo; settings: 3 nmol/kg s.c. single dose, 24 h after administration
Method in brief: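 Twelve hours after a single administration, mice were fasted 12 h and then given 2 g/kg glucose i.p. Tail-vein blood glucose was measured at baseline and at 15, 30, 60 and 90 min. AUC0–90min was calculated per dose group at 24 h post-dose.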

[3] = Glucose tolerance assessment in normal C57BL/6 mice (Example 5); format: in vivo; settings: 3 nmol/kg s.c. single dose, 24 h after administration
Method in brief: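 Normal C57BL/6 mice given a single dose, fasted 12 h starting 12 h post-dose, then challenged with 2 g/kg glucose i.p. Tail-vein glucose measured at baseline and 15, 30, 60, 90 min. AUC0~90min calculated from the glucose–time curve per dose group.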

[4] = 15 min after 2 g/kg glucose i.p.
[5] = 30 min after 2 g/kg glucose i.p.
[6] = 60 min after 2 g/kg glucose i.p.
[7] = 90 min after 2 g/kg glucose i.p.
[8] = basal before 2 g/kg glucose i.p.
[9] = blood glucose AUC, 2 g/kg glucose i.p.

SMILES: CC[C@H](C)[C@H](NC(=O)[C@H](Cc1ccccc1)NC(=O)[C@H](CCC(=O)O)NC(=O)[C@H](CCCNC(=N)N)NC(=O)[C@H](CCC(N)=O)NC(=O)[C@H](CCCNC(=N)N)NC(=O)[C@H](CCCCNC(=O)COCCOCCNC(=O)CC[C@H](NC(=O)CCCCCCCCCCCCCCCCC(=O)O)C(=O)O)NC(=O)[C@H](CCC(=O)O)NC(=O)[C@H](CC(=O)O)NC(=O)[C@H](CC(C)C)NC(=O)[C@H](CC(C)C)NC(=O)[C@@H](NC(=O)[C@H](CO)NC(=O)[C@H](Cc1ccc(O)cc1)NC(=O)[C@H](CC(=O)O)NC(=O)[C@H](CO)NC(=O)[C@@H](NC(=O)[C@](C)(Cc1ccccc1F)NC(=O)[C@@H](NC(=O)CNC(=O)[C@H](Cc1c[nH]cn1)NC(=O)C(C)(C)NC(=O)[C@@H](N)Cc1ccc(O)cc1)[C@@H](C)O)[C@@H](C)O)[C@@H](C)CC)C(=O)N[C@@H](CCC(=O)O)C(=O)N[C@@H](Cc1c[nH]c2ccccc12)C(=O)N[C@@H](CC(C)C)C(=O)N[C@@H](CC(C)C)C(=O)N[C@@H](C)C(=O)NCC(=O)NCC(=O)N1CCC[C@H]1C(=O)N[C@@H](CO)C(=O)N[C@@H](CO)C(=O)NCC(=O)N[C@@H](C)C(=O)N1CCC[C@H]1C(=O)N1CCC[C@H]1C(=O)N1CCC[C@H]1C(=O)N[C@@H](CO)C(=O)O [HEC-PT77]
- AUC(0-inf) [1]: 22200 ± 3840 ng·h/mL
- AUC(0-t) [1]: 22000 ± 3870 ng·h/mL
- Cmax [1]: 596 ± 213 ng/mL
- half-life ([1]; read-out: T1/2 (converted)): 11 ± 1.6 h
- Tmax ([1]; read-out: Tmax): 15 ± 11 h
- Blood glucose level (mM) 15 min [2, 4]: 12.6 ± 3.3 mM
- Blood glucose level (mM) 30 min [2, 5]: 9.6 ± 3.4 mM
- Blood glucose level (mM) 60 min [2, 6]: 8.5 ± 2.7 mM
- Blood glucose level (mM) 90 min [2, 7]: 6.9 ± 1.9 mM
- Blood glucose level (mM) 0 min [2, 8]: 4.0 ± 0.5 mM
- AUC0-90 min [2, 9]: 776.9±227.6^a

SMILES: CC[C@H](C)[C@H](NC(=O)[C@H](Cc1ccccc1)NC(=O)[C@H](C)NC(=O)[C@H](CCCNC(=N)N)NC(=O)[C@H](CCC(N)=O)NC(=O)[C@H](CCCNC(=N)N)NC(=O)[C@H](CCCCNC(=O)COCCOCCNC(=O)CC[C@H](NC(=O)CCCCCCCCCCCCCCCCCCC(=O)O)C(=O)O)NC(=O)[C@H](CCC(=O)O)NC(=O)[C@H](CC(=O)O)NC(=O)[C@H](CC(C)C)NC(=O)[C@H](CC(C)C)NC(=O)[C@@H](NC(=O)[C@H](CO)NC(=O)[C@H](Cc1ccc(O)cc1)NC(=O)[C@H](CC(=O)O)NC(=O)[C@H](CO)NC(=O)[C@@H](NC(=O)[C@](C)(Cc1ccccc1F)NC(=O)[C@@H](NC(=O)CNC(=O)[C@H](CCC(N)=O)NC(=O)C(C)(C)NC(=O)[C@@H](N)Cc1ccc(O)cc1)[C@@H](C)O)[C@@H](C)O)[C@@H](C)CC)C(=O)N[C@@H](CCC(=O)O)C(=O)N[C@@H](Cc1ccc(O)cc1)C(=O)N[C@@H](CC(C)C)C(=O)N[C@@H](CC(C)C)C(=O)N[C@@H](C)C(=O)NCC(=O)NCC(=O)N1CCC[C@H]1C(=O)N[C@@H](CO)C(=O)N[C@@H](CO)C(=O)NCC(=O)N[C@@H](C)C(=O)N1CCC[C@H]1C(=O)N1CCC[C@H]1C(=O)N1CCC[C@H]1C(=O)N[C@@H](CO)C(=O)O [HEC-PT86]
- Blood glucose level (mM) 15 min [3, 4]: 13.2 ± 1.4 mM
- Blood glucose level (mM) 30 min [3, 5]: 10.3 ± 1.9 mM
- Blood glucose level (mM) 60 min [3, 6]: 8.8 ± 1.0 mM
- Blood glucose level (mM) 90 min [3, 7]: 7.0 ± 0.8 mM
- Blood glucose level (mM) 0 min [3, 8]: 3.9 ± 0.2 mM
- AUC0-90 min [3, 9]: 827.3±70.3^a
